Values joined by “and” are separate entries in the source; they are usually repeats but may differ in a detail not shown here. Equal entries are not always repeated.
Assay: xn = mol fraction of the nth substance listed

CCCCCCCCCCCCCC[P+](CCCCCC)(CCCCCC)CCCCCC.N#C[N-]C#N + O
Details	viscosity [mPa·s]
303.11 K, 101 kPa, x2 = 0.198	284.5

CCCCCO + O
viscosity [mPa·s], 101 kPa
Details	298.15 K	308.15 K	318.15 K
x2 = 0.0288	3.509	2.654	–
x2 = 0.029	–	–	2.055
x2 = 0.0453	3.487	2.638	–
x2 = 0.066	3.468	2.62	–
x2 = 0.0685	–	–	2.026
x2 = 0.0859	3.451	2.606	–
x2 = 0.0914	–	–	2.016
x2 = 0.1012	–	–	2.006
x2 = 0.113	3.437	2.591	–
x2 = 0.1301	3.431	2.585	1.997
x2 = 0.1472	3.429	2.579	–
x2 = 0.149	–	–	1.991
x2 = 0.1655	–	2.577	–
x2 = 0.1689	3.424	–	1.985
x2 = 0.1776	3.426	2.576	–
x2 = 0.2023	–	–	1.98
x2 = 0.216	3.428	2.572	–
x2 = 0.2419	3.438	2.575	1.979

COCC(C)O (configuration not stated) + O
viscosity [mPa·s], 101.33 kPa
Details	298.15 K	308.15 K	318.15 K
x1 = 0.0222	1.29	1	0.8257
x1 = 0.0396	1.651	1.236	0.98
x1 = 0.1131	3.035	2.119	1.579
x1 = 0.1959	3.731	2.615	1.925
x1 = 0.301	3.864	2.73	2.015
x1 = 0.3583	3.811	2.663	1.978
x1 = 0.4651	3.515	2.438	1.841
x1 = 0.5264	3.124	2.3	1.744
x1 = 0.7332	2.414	1.823	1.42
x1 = 0.8372	2.094	1.61	1.277
x1 = 0.9035	1.929	1.49	1.189

Cc1nc(C)c(C)[nH]1 + O
viscosity [mPa·s], 100 kPa
Details	x1 = 0.0179	x1 = 0.0393	x1 = 0.0655	x1 = 0.0983	x1 = 0.141
298.15 K	1.317	2.01	3.12	5.27	9.35
303.15 K	1.157	1.754	2.71	4.41	7.38
313.15 K	0.944	1.384	2.08	3.24	4.87
323.15 K	0.774	1.1	1.598	2.4	3.44

NCC(=O)O + O
viscosity
Details	101 kPa	101.33 kPa
293.15 K, x1 = 0.0194	1.181 mPa·s	–
293.15 K, x1 = 0.0294	1.272 mPa·s	–
293.15 K, x1 = 0.036	1.332 mPa·s	–
298.15 K, x1 = 0.0002174	0.8944 mPa·s and 0.8944 mPa·s	–
298.15 K, x1 = 0.0004	0.894 mPa·s	–
298.15 K, x1 = 0.0007	0.8972 mPa·s	–
298.15 K, x1 = 0.0009	0.8942 mPa·s	–
298.15 K, x1 = 0.0009413	0.9111 mPa·s and 0.9111 mPa·s	–
298.15 K, x1 = 0.00135	0.8968 mPa·s	–
298.15 K, x1 = 0.0018	0.8995 mPa·s	–
298.15 K, x1 = 0.002695	0.9053 mPa·s	–
298.15 K, x1 = 0.003657	0.9319 mPa·s and 0.9319 mPa·s	–
298.15 K, x1 = 0.005496	0.932 mPa·s and 0.932 mPa·s	–
298.15 K, x1 = 0.008976	0.9754 mPa·s and 0.9754 mPa·s	–
298.15 K, x1 = 0.0108	0.9757 mPa·s and 0.9757 mPa·s	–
298.15 K, x1 = 0.01215	0.9853 mPa·s and 0.9853 mPa·s	–
298.15 K, x1 = 0.01456	0.986 mPa·s and 0.986 mPa·s	–
303.15 K, x1 = 0.0003	0.803 mPa·s	–
303.15 K, x1 = 0.0004	0.8014 mPa·s	–
303.15 K, x1 = 0.0007	0.8046 mPa·s	–
303.15 K, x1 = 0.0009	0.801 mPa·s	–
303.15 K, x1 = 0.00135	0.8035 mPa·s	–
303.15 K, x1 = 0.0018	0.8126 mPa·s	–
303.15 K, x1 = 0.002	0.816 mPa·s	–
303.15 K, x1 = 0.0022	0.8155 mPa·s	–
303.15 K, x1 = 0.002695	0.8117 mPa·s	–
303.15 K, x1 = 0.0029	0.8217 mPa·s	–
303.15 K, x1 = 0.003592	0.8207 mPa·s	–
303.15 K, x1 = 0.0063	0.8489 mPa·s	–
303.15 K, x1 = 0.0107	0.8659 mPa·s	–
303.15 K, x1 = 0.01246	0.8788 mPa·s	–
303.15 K, x1 = 0.0129	0.8994 mPa·s	–
303.15 K, x1 = 0.0194	0.9492 mPa·s	–
303.15 K, x1 = 0.0294	1.026 mPa·s	–
303.15 K, x1 = 0.036	1.076 mPa·s	–
308.15 K, x1 = 0.00135	0.7251 mPa·s	–
308.15 K, x1 = 0.0018	0.7276 mPa·s and 0.7355 mPa·s	0.7365 mPa·s
308.15 K, x1 = 0.0022	0.7378 mPa·s	–
308.15 K, x1 = 0.0025	0.7407 mPa·s	–
308.15 K, x1 = 0.0029	0.7439 mPa·s	–
308.15 K, x1 = 0.003657	0.7609 mPa·s and 0.7609 mPa·s	–
308.15 K, x1 = 0.005496	0.7659 mPa·s and 0.7659 mPa·s	–
308.15 K, x1 = 0.007374	0.7773 mPa·s and 0.7773 mPa·s	–
308.15 K, x1 = 0.0108	0.8059 mPa·s and 0.8059 mPa·s	–
308.15 K, x1 = 0.01215	0.806 mPa·s and 0.806 mPa·s	–
308.15 K, x1 = 0.01456	0.8089 mPa·s and 0.8089 mPa·s	–
313.15 K, x1 = 0.001	0.664 mPa·s and 0.6667 mPa·s	–
313.15 K, x1 = 0.00135	0.6585 mPa·s	–
313.15 K, x1 = 0.002	0.667 mPa·s	–
313.15 K, x1 = 0.0022	0.6712 mPa·s	–
313.15 K, x1 = 0.0025	0.6739 mPa·s	–
313.15 K, x1 = 0.005375	0.6819 mPa·s	–
313.15 K, x1 = 0.0129	0.727 mPa·s	–
313.15 K, x1 = 0.0194	0.7628 mPa·s	–
313.15 K, x1 = 0.0294	0.8179 mPa·s	–
313.15 K, x1 = 0.036	0.8542 mPa·s	–
318.15 K, x1 = 0.0002174	0.6164 mPa·s and 0.6164 mPa·s	–
318.15 K, x1 = 0.0009	0.6007 mPa·s	–
318.15 K, x1 = 0.0018	0.6052 mPa·s	–
318.15 K, x1 = 0.001865	0.6321 mPa·s	–
318.15 K, x1 = 0.002245	0.6076 mPa·s	–
318.15 K, x1 = 0.002695	0.6099 mPa·s	–
318.15 K, x1 = 0.005496	0.6417 mPa·s	–
318.15 K, x1 = 0.007374	0.6579 mPa·s and 0.6579 mPa·s	–
318.15 K, x1 = 0.008976	0.6725 mPa·s and 0.6725 mPa·s	–
318.15 K, x1 = 0.0108	0.6756 mPa·s and 0.6756 mPa·s	–
318.15 K, x1 = 0.01215	0.6757 mPa·s and 0.6757 mPa·s	–
318.15 K, x1 = 0.01456	0.6821 mPa·s and 0.6821 mPa·s	–
323.15 K, x1 = 0.0003	0.5508 mPa·s	–
323.15 K, x1 = 0.002	0.5589 mPa·s	–
323.15 K, x1 = 0.008932	0.5878 mPa·s	–
323.15 K, x1 = 0.01246	0.6035 mPa·s	–
323.15 K, x1 = 0.0194	0.6412 mPa·s	–
323.15 K, x1 = 0.0294	0.6885 mPa·s	–
323.15 K, x1 = 0.036	0.7197 mPa·s	–

[Li+].[OH-] + O
viscosity [mPa·s], 101 kPa
Details	x1 = 0.0089	x1 = 0.02284	x1 = 0.0263	x1 = 0.0385	x1 = 0.0513	x1 = 0.075	x1 = 0.0776	x1 = 0.08062
298.15 K	–	1.245	–	1.602	–	–	–	3.29
308.15 K	–	0.996	–	1.261	–	–	–	2.467
323.15 K	0.609	0.748	0.778	0.931	1.114	1.596	1.66	1.743

C=C(C)C(=O)O + O=C1CCCCC1
viscosity [mPa·s], 101 kPa
Details	x2 = 0.1	x2 = 0.2	x2 = 0.3	x2 = 0.4	x2 = 0.5	x2 = 0.5999	x2 = 0.7	x2 = 0.8	x2 = 0.9
298.15 K	1.369	1.528	1.659	1.809	1.901	1.949	1.999	2.045	2.037
308.15 K	1.159	1.281	1.389	1.508	1.583	1.616	1.651	1.683	1.684
318.15 K	0.999	1.101	1.183	1.275	1.33	1.359	1.395	1.424	1.422

O=[N+]([O-])c1ccccc1 + O=C1CCCCC1
Details	viscosity [mPa·s]
298.15 K, 101.3 kPa, x2 = 0.1946	1.785

CCOCCOCCO + O=C1CCCN1
298.15 K, 101 kPa
Details	viscosity [mPa·s]
x1 = 0.0021	14.17
x1 = 0.004	14.1
x1 = 0.0086	14
x1 = 0.0117	13.9
x1 = 0.0212	13.57
x1 = 0.0348	13.2
x1 = 0.0525	12.63
x1 = 0.0788	12.03
x1 = 0.108	11.37
x1 = 0.1478	10.61
x1 = 0.1914	9.859
x1 = 0.2318	9.217
x1 = 0.2798	8.602
x1 = 0.3222	8.116
x1 = 0.3673	7.637
x1 = 0.4326	7.009
x1 = 0.4635	6.788
x1 = 0.5199	6.331
x1 = 0.5639	6.038
x1 = 0.6088	5.76
x1 = 0.6756	5.37
x1 = 0.7363	5.074
x1 = 0.7879	4.842
x1 = 0.8388	4.665
x1 = 0.8795	4.494
x1 = 0.9249	4.308
x1 = 0.9572	4.175
x1 = 0.977	4.003
x2 = 0.0069	3.885

— the CheMixHub viscosity set
